# According to US20060276464A1, “Diarylsulfone sulfonamides and use thereof” (Wyeth, priority 2005, published 2006):
# Values joined by “and” are separate entries in the source; they are usually repeats but may differ in a detail not shown here. Equal entries are not always repeated. Where two headings read alike, the source gives them in different places.
# What was measured:
# SFRP-1 [1] = molecular target: T1, SFRP-1 (Homo sapiens, UniProt Q8N474); test: Fluorescence polarization binding assay (competitive displacement of a probe compound from SFRP-1); details: fluorescence anisotropy, 45 nM SFRP-1, 20 nM probe;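 further: test compound competes with a fluorescent probe held by SFRP-1, seen as a drop in probe anisotropy after incubation in darkness, with anisotropy as function of rising compound dose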
# T1 sequence (Q8N474 32-314): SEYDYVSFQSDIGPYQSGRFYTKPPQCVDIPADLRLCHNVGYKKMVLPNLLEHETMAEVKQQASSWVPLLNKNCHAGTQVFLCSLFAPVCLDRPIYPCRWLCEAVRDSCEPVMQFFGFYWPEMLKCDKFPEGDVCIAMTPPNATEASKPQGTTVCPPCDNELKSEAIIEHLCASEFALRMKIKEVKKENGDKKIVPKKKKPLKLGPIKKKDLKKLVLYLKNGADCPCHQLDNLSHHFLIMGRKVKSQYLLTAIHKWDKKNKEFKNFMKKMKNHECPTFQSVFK
# SFRP-1 [2] = molecular target: T1, SFRP-1; test: Cell-based assay for in vitro measurement of SFRP-1/SARP2 antagonist activity (U2OS cells co-transfected with 16x TCF-tk-Luciferase reporter, Wnt and hSFRP-1); details: for fold induction at 10 µM / fold induction at 15 µM: U2OS; for fold induction at 10 µM: read-out: Fold Induction with SFRP-1, U2OS cells, single dose 10 μM, luciferase reporter, fold induction over SFRP-1 control;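 on all read-outs here: U2OS cells co-transfected with a TCF-tk luciferase reporter, a Wnt vector, hSFRP-1 or empty vector and CMV-βgal, luciferase luminescence read in cell lysates alongside βgal activity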
# [3] = read-out: Fold Induction with SFRP-1, Conc 15 μM, with SFRP-1, fold induction over SFRP-1 control, single dose
# [4] = read-out: Fold Induction without SFRP-1, Conc 15 μM, without SFRP-1, single dose
SMILES,IC50 (SFRP-1 [1]),EC50 (SFRP-1 [2]),fold induction at 10 µM (SFRP-1 [2]),"Fold Induction with SFRP-1 (SFRP-1 [2]; Conc 15 μM, with SFRP-1, fold induction over SFRP-1 control, single dose)",fold induction at 15 µM (SFRP-1 [2]; [3]),fold induction at 15 µM (SFRP-1 [2]; [4]),"fold induction at 15 µM (SFRP-1 [2]; read-out: Fold Induction with SFRP-1, Conc 15 μM, single dose, luciferase reporter, fold induction over SFRP-1 control, cells with SFRP-1)","fold induction at 15 µM (SFRP-1 [2]; read-out: Fold Induction without SFRP-1, Conc 15 μM, single dose, luciferase reporter, cells without SFRP-1 (specificity control))"
"O=C(O)CCC(=O)N1CCCC1CCNS(=O)(=O)c1cc(S(=O)(=O)c2ccccc2)ccc1C(F)(F)F (stereo not drawn) [Example 919, 4-oxo-4-{2-[2-({[5-(phenylsulfonyl)-2-(trifluoromethyl)phenyl]sulfonyl}amino)ethyl]pyrrolidin-1-yl}butanoic acid]",1.4 µM,5.26 µM,1.6,–,–,–,–,–
"CC(C)c1ccc(S(=O)(=O)c2ccc(F)cc2)cc1S(=O)(=O)NC1CCN(C(=S)NCCN2CCOCC2)CC1 [Example 698, 4-[({5-[(4-fluorophenyl)sulfonyl]-2-isopropylphenyl}sulfonyl)amino]-N-(2-morpholin-4-ylethyl)piperidine-1-carbothioamide]",0.7 µM,0.609 µM,3,–,–,–,–,–
"C[C@@H](NS(=O)(=O)c1cc(S(=O)(=O)c2ccccc2)ccc1C(F)(F)F)[C@H](O)c1ccccc1 (relative stereo) [Example 684, N-[(1R*,2R*)-2-hydroxy-1-methyl-2-phenylethyl]-5-(phenylsulfonyl)-2-(trifluoromethyl)benzenesulfonamide]",1 µM,29.3 µM,1.7,–,–,–,–,–
"Cc1ccc(S(=O)(=O)c2ccccc2)cc1S(=O)(=O)NCCCn1ccnc1 [Example 219, N-[3-(1H-imidazol-1-yl)propyl]-2-methyl-5-(phenylsulfonyl)benzenesulfonamide]",3 µM and 1.1 µM and 2.1 µM,–,–,3.6 fold,3,1.1,–,–
"Cc1ccc(S(=O)(=O)c2ccccc2)cc1S(=O)(=O)NC1CCN(C(=O)c2ccc(N(C)C)cc2)CC1 [Example 499, N-{1-[4-(dimethylamino)benzoyl]piperidin-4-yl}-2-methyl-5-(phenylsulfonyl)benzenesulfonamide]",0.9 µM,–,–,–,–,–,2.4,1
"O=C(O)c1ccc(S(=O)(=O)N2CCC[C@H]2C(=O)N2CCC(NS(=O)(=O)c3cc(S(=O)(=O)c4ccccc4)ccc3C(F)(F)F)CC2)cc1 [Example 1080, 4-[((2S)-2-{[4-({[5-(phenylsulfonyl)-2-(trifluoromethyl)phenyl]sulfonyl}amino)piperidin-1-yl]carbonyl}pyrrolidin-1-yl)sulfonyl]benzoic acid]",0.03 µM,0.386 µM,–,–,–,–,–,–
"CC(C)c1ccc(S(=O)(=O)c2ccc(F)cc2)cc1S(=O)(=O)NCCc1c[nH]cn1 [Example 442, 5-[(4-fluorophenyl)sulfonyl]-N-[2-(1H-imidazol-4-yl)ethyl]-2-isopropylbenzenesulfonamide]",1 µM,–,–,–,3.9,1,–,–
"CCCc1ccc(S(=O)(=O)c2ccccc2)cc1S(=O)(=O)NC1CCNCC1 [Example 925, 5-(phenylsulfonyl)-N-piperidin-4-yl-2-propylbenzenesulfonamide]",8 µM,2.15 µM,3,–,–,–,–,–
"CCCc1ccc(S(=O)(=O)c2ccccc2)cc1S(=O)(=O)NCCc1cccnc1 [Example 876, 5-(Phenylsulfonyl)-2-propyl-N-(2-pyridin-3-ylethyl)benzenesulfonamide]",0.8 µM,1.36 µM,3,–,–,–,–,–
"CN(CCNS(=O)(=O)c1cc(S(=O)(=O)c2ccccc2)ccc1C(F)(F)F)C(=O)N1CCN(C(=O)OC(C)(C)C)CC1 [Example 887, tert-butyl 4-({methyl[2-({[5-(phenylsulfonyl)-2-(trifluoromethyl)phenyl]sulfonyl}amino)ethyl]amino}carbonyl)piperazine-1-carboxylate]",3 µM,1.77 µM,2.3,–,–,–,–,–
"CC(C)c1ccc(S(=O)(=O)c2cccc(Cl)c2)cc1S(=O)(=O)NCCc1ccccn1 [Example 455, 5-[(3-chlorophenyl)sulfonyl]-2-isopropyl-N-(2-pyridin-2-ylethyl)benzenesulfonamide]",0.5 µM,–,–,–,3.2,1,–,–
"COP(=O)(Cc1ccc(C(=O)N(C)CCNS(=O)(=O)c2cc(S(=O)(=O)c3ccccc3)ccc2C(F)(F)F)cc1)OC [Example 1006, dimethyl [4-({methyl[2-({[5-(phenylsulfonyl)-2-(trifluoromethyl)phenyl]sulfonyl}amino)ethyl]amino}carbonyl)benzyl]phosphonate]",0.18 µM,8.16 µM,–,–,–,–,–,–
"Cc1ccc(S(=O)(=O)c2ccccc2)cc1S(=O)(=O)NC1CCN(C(=O)OC(C)(C)C)CC1 [Example 446, tert-butyl 4-({[2-methyl-5-(phenylsulfonyl)phenyl]sulfonyl}amino)piperidine-1-carboxylate]",2 µM,–,–,–,2.3,1.1,–,–
"COC(=O)c1ccc(C(=O)N(C)CCNS(=O)(=O)c2cc(S(=O)(=O)c3ccccc3)ccc2C(F)(F)F)cc1 [Example 848, Methyl 4-({methyl[2-({[5-(phenylsulfonyl)-2-(trifluoromethyl)phenyl]sulfonyl}amino)ethyl]amino}carbonyl)benzoate]",0.7 µM,1.64 µM,3.6,–,–,–,–,–
"O=S(=O)(NCc1ccc(Cl)nc1)c1cc(S(=O)(=O)c2ccccc2)ccc1C(F)(F)F [Example 1030, N-[(6-chloropyridin-3-yl)methyl]-5-(phenylsulfonyl)-2-(trifluoromethyl)benzenesulfonamide]",0.5 µM,1.11 µM,–,–,–,–,–,–
"CC(C)c1ccc(S(=O)(=O)c2ccc(F)cc2)cc1S(=O)(=O)NC1CCN(C(=S)Nc2cccc([N+](=O)[O-])c2)CC1 [Example 699, 4-[({5-[(4-fluorophenyl)sulfonyl]-2-isopropylphenyl}sulfonyl)amino]-N-(3-nitrophenyl)piperidine-1-carbothioamide]",1.6 µM,9.8 µM,2.9,–,–,–,–,–
"O=S(=O)(N[C@H](CO)Cc1ccccc1)c1cc(S(=O)(=O)c2ccccc2)ccc1C(F)(F)F [Example 720, N-[(1S)-1-benzyl-2-hydroxyethyl]-5-(phenylsulfonyl)-2-(trifluoromethyl)benzenesulfonamide]",6 µM,–,2,–,–,–,–,–
"Cc1ccc(S(=O)(=O)c2ccccc2)cc1S(=O)(=O)NC1CCC1 [Example 398, N-cyclobutyl-2-methyl-5-(phenylsulfonyl)benzenesulfonamide]",9 µM,–,–,–,2.6,1.2,–,–
"O=S(=O)(NC[C@H](O)c1ccccc1)c1cc(S(=O)(=O)c2ccccc2)ccc1C(F)(F)F [Example 773, N-[(2R)-2-hydroxy-2-phenylethyl]-5-(phenylsulfonyl)-2-(trifluoromethyl)benzenesulfonamide]",1.9 µM,1.3 µM,1.2,–,–,–,–,–
"O=C(O)c1cccc(N2CCC(CNS(=O)(=O)c3cc(S(=O)(=O)c4ccccc4)ccc3C(F)(F)F)CC2)c1 [Example 956, 3-{4-[({[5-(phenylsulfonyl)-2-(trifluoromethyl)phenyl]sulfonyl}amino)methyl]piperidin-1-yl}benzoic acid]",0.11 µM,0.31 µM,4.3,–,–,–,–,–
"O=S(=O)(NC1CCNCC1)c1cc(S(=O)(=O)c2ccccc2NCCO)ccc1C(F)(F)F [Example 869, 5-({2-[(2-hydroxyethyl)amino]phenyl}sulfonyl)-N-piperidin-4-yl-2-(trifluoromethyl)benzenesulfonamide]",1.2 µM,1.76 µM,3.5,–,–,–,–,–
